Measured values published in patent US20050080090A1, “Naphthalene derivatives” (priority 1993, published 2005).
Where a name gives a salt, the structure may show the parent alone.

SMILES	melting point [°C]
O=C(Nc1ccc2cccc(N3CCNCC3)c2c1)c1ccccc1	141.5 to 144
CN1CCN(c2cccc3ccc(NC(=O)C(F)(F)F)cc23)CC1	159 to 160
CC(=O)Nc1ccc2cccc(N3CCN(C)CC3)c2c1	177 to 180
CN1CCN(c2cccc3ccc(N)cc23)CC1	157 to 159
CN1CCN(c2cccc3ccc(Nc4ccc([N+](=O)[O-])cc4[N+](=O)[O-])cc23)CC1	153 to 154
CN1CCC(c2cccc3ccc(N)cc23)CC1	169.5 to 171
CN1CCCC(c2cccc3ccc(N)cc23)C1 (stereo not drawn)	117 to 120
CN1CCN(c2cccc3ccc(NC(=O)c4cc([N+](=O)[O-])cc([N+](=O)[O-])c4)cc23)CC1	254 to 256
Cl.O=CNc1ccc2cccc(C[C@H]3CCCN3)c2c1	223.5 to 224
Nc1ccc2cccc(N3CCNCC3)c2c1	184 to 186
CN1CCCC(c2cccc3ccc(-n4cnc5ncccc54)cc23)C1 (stereo not drawn) (as salt: HCl) [Example 63, 7-(Imidazolo[4,5-b]pyridin-1-yl)-1-(1-methyl-3-piperidinyl)-naphthalene]	> 250
CN1CCCC(c2cccc3ccc(NC(=O)c4ccccc4)cc23)C1 (stereo not drawn) (as salt: HCl) [Example 64, 7-Benzamido-1-(1-methyl-3-piperidinyl)-naphthalene]	140 to 170
O=C(Nc1ccc2cccc(C[C@H]3CCCN3)c2c1)c1ccc(Cl)cc1 (as salt: HCl) [Example 71, 7-(4-Chlorobenzamido)-1-(pyrrolidin-2-(R)-ylmethyl)-naphthalene]	230 to 231.5
c1cc(N2CCNCC2)c2cc(-n3cnc4ncccc43)ccc2c1 (as salt: hydrochloride)	> 250
c1cc(N2CCNCC2)c2cc(-n3nnc4ncccc43)ccc2c1 (as salt: hydrochloride)	> 250
CN1CCN(c2cccc3ccc(OCc4ccc(C(F)(F)F)cc4)cc23)CC1 (as salt: hydrochloride) [Example 51, 7-(4-Trifluoromethylbenzyloxy)-1-(4-methyl-1-piperazinyl)-naphthalene]	205 to 206
COCCN1CCN(c2cccc3ccc(NC(=O)c4ccc(Cl)cc4)cc23)CC1 (as salt: hydrochloride) [Example 65, 7-(4-Chlorobenzamido)-1-(4-methoxyethyl-1-piperazinyl)-naphthalene]	134 to 148
COc1cccc(-c2ccc3cccc(N4CCN(C)CC4)c3c2)c1 (as salt: hydrochloride) [Example 81, 7-(3-Methoxyphenyl)-1-(4-methylpiperazin-1-yl)naphthalene]	236 to 238
CN1CCN(c2cccc3ccc(Nc4ncccc4N)cc23)CC1 (hydrate or solvate) [Example 29, 7-(3-Amino-2-pyridylamino)-1-(4-methyl-1-piperazinyl)-naphthalene]	198 to 200
CN1CCN(c2cccc3ccc(NC(=O)c4ccccc4)cc23)CC1 [Example 1, 7-Benzamido-1-(4-methyl-1-piperazinyl)-naphthalene]	173 to 175
CN1CCN(c2cccc3ccc(NC(=O)c4cccc([N+](=O)[O-])c4)cc23)CC1 [Example 4, 7-(3-Nitrobenzamido)-1-(4-methyl-1-piperazinyl)-naphthalene]	182 to 184
CN1CCN(c2cccc3ccc(NC(=O)c4cccc(Cl)c4)cc23)CC1 [Example 6, 7-(3-Chlorobenzamido)-1-(4-methyl-1-piperazinyl)-naphthalene]	147 to 148
CN1CCN(c2cccc3ccc(NC(=O)c4ccc(Cl)cc4)cc23)CC1 [Example 8, 7-(4-Chlorobenzamido)-1-(4-methyl-1-piperazinyl)-naphthalene]	174 to 175
CN1CCN(c2cccc3ccc(NC(=O)c4cccc(C#N)c4)cc23)CC1 [Example 9, 7-(3-Cyanobenzamido)-1-(4-methyl-1-piperazinyl)-naphthalene]	220 to 222
